{"source": "patent US20240269106A1", "about": "“SMALL MOLECULE MODULATOR TARGETING A RARE HISTONE MODIFICATION REGULATING ADIPOGENESIS AND PHARMACEUTICAL FORMULATION THEREOF” (COUNCIL OF SCIENTIFIC AND INDUSTRIAL RESEARCH AN INDIAN …, priority 2021, published 2024)", "key": {"[1]": {"molecular_target": "T1, full length p300 (Homo sapiens, UniProt Q09472)", "T1 construct": "Purified full length p300 protein was used for in vitro acetylation/butyrylation assay", "T1 sequence (Q09472 whole entry, species assumed)": "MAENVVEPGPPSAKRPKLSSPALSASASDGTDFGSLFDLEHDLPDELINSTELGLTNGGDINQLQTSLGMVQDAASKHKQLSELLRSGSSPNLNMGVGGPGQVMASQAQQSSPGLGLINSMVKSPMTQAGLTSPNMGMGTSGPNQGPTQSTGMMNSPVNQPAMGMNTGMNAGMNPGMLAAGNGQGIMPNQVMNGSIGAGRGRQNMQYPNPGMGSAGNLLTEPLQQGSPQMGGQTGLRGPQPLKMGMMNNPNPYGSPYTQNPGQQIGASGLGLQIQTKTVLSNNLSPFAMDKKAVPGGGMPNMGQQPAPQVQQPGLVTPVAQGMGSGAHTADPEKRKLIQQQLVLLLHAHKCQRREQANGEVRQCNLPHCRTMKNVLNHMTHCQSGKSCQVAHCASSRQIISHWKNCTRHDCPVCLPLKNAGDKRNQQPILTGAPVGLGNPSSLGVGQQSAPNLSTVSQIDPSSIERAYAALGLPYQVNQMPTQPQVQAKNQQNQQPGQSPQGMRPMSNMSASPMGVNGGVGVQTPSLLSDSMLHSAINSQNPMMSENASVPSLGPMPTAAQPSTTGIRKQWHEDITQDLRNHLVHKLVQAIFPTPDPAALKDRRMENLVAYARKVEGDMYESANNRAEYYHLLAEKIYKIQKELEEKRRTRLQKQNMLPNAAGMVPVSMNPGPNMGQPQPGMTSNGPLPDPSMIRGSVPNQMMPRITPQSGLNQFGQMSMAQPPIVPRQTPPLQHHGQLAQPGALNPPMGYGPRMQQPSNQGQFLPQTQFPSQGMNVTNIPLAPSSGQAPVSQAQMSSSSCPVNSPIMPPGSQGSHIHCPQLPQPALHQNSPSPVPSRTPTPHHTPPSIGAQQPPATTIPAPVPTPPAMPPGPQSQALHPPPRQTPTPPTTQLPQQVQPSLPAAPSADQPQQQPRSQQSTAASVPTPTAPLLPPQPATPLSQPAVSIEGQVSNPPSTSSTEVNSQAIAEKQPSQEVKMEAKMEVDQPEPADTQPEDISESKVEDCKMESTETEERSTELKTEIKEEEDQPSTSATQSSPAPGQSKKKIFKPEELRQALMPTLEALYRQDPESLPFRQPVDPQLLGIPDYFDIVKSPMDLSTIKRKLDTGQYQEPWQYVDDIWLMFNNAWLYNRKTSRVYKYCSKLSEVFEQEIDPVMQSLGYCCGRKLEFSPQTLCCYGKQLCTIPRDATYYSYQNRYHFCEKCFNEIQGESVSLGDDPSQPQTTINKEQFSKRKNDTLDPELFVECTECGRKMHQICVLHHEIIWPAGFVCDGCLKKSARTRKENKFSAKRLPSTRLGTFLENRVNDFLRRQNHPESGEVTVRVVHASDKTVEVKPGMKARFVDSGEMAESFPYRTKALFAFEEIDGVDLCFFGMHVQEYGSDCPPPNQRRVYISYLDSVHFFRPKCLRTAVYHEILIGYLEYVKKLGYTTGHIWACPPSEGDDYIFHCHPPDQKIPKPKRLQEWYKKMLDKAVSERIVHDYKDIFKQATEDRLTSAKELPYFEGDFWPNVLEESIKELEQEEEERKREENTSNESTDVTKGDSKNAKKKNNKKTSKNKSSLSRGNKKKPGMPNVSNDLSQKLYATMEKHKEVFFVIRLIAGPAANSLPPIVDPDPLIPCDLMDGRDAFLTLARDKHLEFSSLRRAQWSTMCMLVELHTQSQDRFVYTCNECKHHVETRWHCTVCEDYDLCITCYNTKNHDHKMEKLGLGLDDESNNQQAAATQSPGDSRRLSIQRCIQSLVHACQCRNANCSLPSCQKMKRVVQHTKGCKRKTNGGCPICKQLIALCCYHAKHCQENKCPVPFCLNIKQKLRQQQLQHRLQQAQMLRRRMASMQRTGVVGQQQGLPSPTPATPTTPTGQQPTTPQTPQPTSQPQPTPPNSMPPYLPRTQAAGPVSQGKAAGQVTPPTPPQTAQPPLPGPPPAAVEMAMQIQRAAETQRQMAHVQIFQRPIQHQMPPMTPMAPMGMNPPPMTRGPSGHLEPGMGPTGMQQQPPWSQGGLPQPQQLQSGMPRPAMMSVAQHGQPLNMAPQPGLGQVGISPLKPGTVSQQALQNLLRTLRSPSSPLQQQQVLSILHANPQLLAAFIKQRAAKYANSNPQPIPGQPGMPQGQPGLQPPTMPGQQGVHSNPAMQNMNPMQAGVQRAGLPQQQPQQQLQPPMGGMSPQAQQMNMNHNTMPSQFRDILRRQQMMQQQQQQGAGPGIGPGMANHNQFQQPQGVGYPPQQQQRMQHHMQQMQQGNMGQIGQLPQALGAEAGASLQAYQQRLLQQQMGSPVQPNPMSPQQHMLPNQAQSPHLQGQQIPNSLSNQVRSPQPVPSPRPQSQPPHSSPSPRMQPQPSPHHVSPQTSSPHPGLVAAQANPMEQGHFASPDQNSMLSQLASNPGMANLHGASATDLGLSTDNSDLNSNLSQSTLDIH", "experiment": "In vitro p300 acetylation assay (immunoblot)", "type": "biochemical", "settings": "for effect on p300 catalysed acetyltransferase activity: FIG. 2i, immunoblot", "protocol": "(§1) Purified full length p300 protein was used for in vitro acetylation/butyrylation assay in presence/absence of different compounds. Acylation reactions were performed in reaction buffer (25 mM Tris-HCl PH 7.5, 100 mM NaCl, 0.1 mM EDTA, 1 mM DTT, 10% Glycerol, 1×PIC) with 100 ng/ml TSA, and 50 μM Butyryl-CoA/Acetyl COA. Xenopus histone H3 (500 ng) was used as the substrate and p300 (10,000 cpm activity) was used as the enzyme. Reactions were incubated in presence or absence of small molecule modulators (including compound of Formula I) for 10 minutes at 30° C., followed by initiation of the acetylation/butyrylation reaction by the addition of acetyl/butyryl CoA. After a further 10 minutes, reactions were stopped by addition of Laemmli buffer and samples were used for immunoblotting.\n(§2) Immunoblotting with antibodies against acetylated H3K18, acetylated H3K9 and pan-butyryl lysine was performed to check for the relative inhibition of acetyl transferase and butyryl transferase activities of full length p300 by garcinol, isogarcinol and its different derivatives including compound of Formula I at different concentrations. FIG. 2i depicts the effect of garcinol, isogarcinol and two of its derivatives LTK-13 and LTK-14 on p300 catalysed acetyltransferase activity. […] FIG. 2ii depicts the effect of LTK-14 on acetylation and butyrylation catalysed by p300. Lane 1, enzyme alone; Lane 2-4, enzyme+LTK-14 at concentrations 500 nM, 2 μM and 10 μM, respectively. LTK-14 could inhibit acetylation at 10 μM concentration while butyrylation was inhibited at 2 μM concentration. FIG. 2iii depicts the effect of compound x on acetylation and butyrylation catalysed by p300. Lane 1, enzyme alone; Lane 2, enzyme+DMSO; Lane 3-6, enzyme+compound x at concentrations 10, 15, 20 and 25 μM, respectively."}, "[2]": {"molecular_target": "T1, full length p300", "experiment": "In vitro p300 butyrylation assay (immunoblot)", "type": "biochemical", "settings": "for effect on p300 catalysed butyrylation: FIG. 2 legend", "protocol": "as §1, §2"}, "[3]": {"settings": "tested at 500 nM, 2 μM and 10 μM"}}}
{"compound": "COc1ccc(C(=O)C2=C3OC(C)(C)[C@@H](CC=C(C)C)C[C@@]34C[C@@H](CC=C(C)C)C(C)(C)[C@@](CC=C(C)C)(C2=O)C4=O)cc1O", "note": "[LTK-14]", "values": [{"measurement": "effect on p300 catalysed acetyltransferase activity", "setting": "[1]", "result": "showed inhibitory effect"}, {"measurement": "concentration at which acetylation was inhibited", "setting": "[1]; [3]", "result": 10, "unit": "µM"}, {"measurement": "effect on p300 catalysed butyrylation", "setting": "[2]", "result": "can inhibit"}, {"measurement": "concentration at which butyrylation was inhibited", "setting": "[2]; [3]", "result": 2, "unit": "µM"}]}
{"compound": "CC(C)=CC[C@H]1C[C@@]23C[C@@H](CC=C(C)C)C(C)(C)[C@@](CC=C(C)C)(C(=O)C(C(=O)c4ccc(O)c(O)c4)=C2OC1(C)C)C3=O", "note": "[isogarcinol]", "values": [{"measurement": "effect on p300 catalysed acetyltransferase activity", "setting": "[1]", "result": "showed inhibitory effect"}, {"measurement": "effect on p300 catalysed butyrylation", "setting": "[2]", "result": "can inhibit"}]}
